Test results published in the NIST ThermoML archive (doi:10.1016/j.jct.2015.02.017).
± gives the expanded uncertainty stated by the source.

Experiment: mn = molality of the nth substance listed, in mol/kg
Conditions: 298.15 K, 101 kPa, Liquid; for viscosity: Capillary tube (Ostwald / Ubbelohde) method; for mass density: Vibrating tube method

Compound `C[n+]1ccn(CCCCn2cc[n+](C)c2)c1.[Br-].[Br-]` + O has a viscosity (m1 = 0.0993) of 0.94 ± 0.02 mPa·s, a viscosity (m1 = 0.1398) of 0.958 ± 0.02 mPa·s and a viscosity (m1 = 0.1597) of 0.967 ± 0.02 mPa·s. The viscosity (m1 = 0.1794) was 0.977 ± 0.02 mPa·s, the viscosity (m1 = 0.194) was 0.984 ± 0.02 mPa·s and the viscosity (m1 = 0.2187) was 0.996 ± 0.021 mPa·s. The viscosity (m1 = 0.2485) was 1.008 ± 0.021 mPa·s, the mass density (m1 = 0.0993) was 1009.54 ± 0.091 kg/m3 and the mass density (m1 = 0.1398) was 1014.42 ± 0.093 kg/m3. It also gave a mass density (m1 = 0.1597) of 1016.78 ± 0.095 kg/m3, a mass density (m1 = 0.194) of 1020.81 ± 0.098 kg/m3 and a mass density (m1 = 0.2187) of 1023.65 ± 0.099 kg/m3. For the same compound, the mass density (m1 = 0.2485) was 1027.04 ± 0.1 kg/m3.

`C[n+]1ccn(CCCCCn2cc[n+](C)c2)c1.[Br-].[Br-]` + O gave a viscosity (m1 = 0.05) of 0.917 ± 0.019 mPa·s, a viscosity (m1 = 0.0967) of 0.943 ± 0.02 mPa·s and a viscosity (m1 = 0.1108) of 0.949 ± 0.02 mPa·s. The viscosity (m1 = 0.1389) was 0.966 ± 0.02 mPa·s, the viscosity (m1 = 0.1621) was 0.979 ± 0.02 mPa·s and the viscosity (m1 = 0.1929) was 0.996 ± 0.021 mPa·s. The mass density (m1 = 0.05) was 1003.25 ± 0.088 kg/m3, the mass density (m1 = 0.0825) was 1007.17 ± 0.09 kg/m3 and the mass density (m1 = 0.1108) was 1010.53 ± 0.091 kg/m3. The mass density (m1 = 0.1522) was 1015.32 ± 0.093 kg/m3 and the mass density (m1 = 0.2152) was 1022.44 ± 0.099 kg/m3.

Work on `O=C[C@H](O)[C@@H](O)[C@H](O)[C@H](O)CO` [D-glucose] + O yielded a viscosity (m1 = 0.2) of 0.975 ± 0.02 mPa·s, a viscosity (m1 = 0.4) of 1.068 ± 0.022 mPa·s and a viscosity (m1 = 0.8) of 1.28 ± 0.027 mPa·s. It also gave a viscosity (m1 = 1.2) of 1.532 ± 0.032 mPa·s, a viscosity (m1 = 1.6) of 1.83 ± 0.038 mPa·s and a mass density (m1 = 0.2) of 1010.41 ± 0.14 kg/m3. For the same compound, the mass density (m1 = 0.4) was 1023.12 ± 0.14 kg/m3, the mass density (m1 = 0.8) was 1046.88 ± 0.15 kg/m3 and the mass density (m1 = 1.2) was 1068.58 ± 0.16 kg/m3. For the same compound, the mass density (m1 = 1.6) was 1088.48 ± 0.16 kg/m3.

In the case of `C[n+]1ccn(CCCCCCn2cc[n+](C)c2)c1.[Br-].[Br-]` + O, the viscosity (m1 = 0.0407) is reported as 0.917 ± 0.019 mPa·s, the viscosity (m1 = 0.0989) is reported as 0.953 ± 0.02 mPa·s and the viscosity (m1 = 0.1196) is reported as 0.966 ± 0.02 mPa·s. The viscosity (m1 = 0.1403) was 0.98 ± 0.02 mPa·s, the viscosity (m1 = 0.1604) was 0.993 ± 0.021 mPa·s and the viscosity (m1 = 0.2001) was 1.02 ± 0.021 mPa·s. It also gave a mass density (m1 = 0.0814) of 1006.92 ± 0.089 kg/m3, a mass density (m1 = 0.1) of 1009.1 ± 0.09 kg/m3 and a mass density (m1 = 0.1206) of 1011.5 ± 0.09 kg/m3. For the same compound, the mass density (m1 = 0.1403) was 1013.75 ± 0.092 kg/m3 and the mass density (m1 = 0.1772) was 1017.94 ± 0.095 kg/m3.
